Experimental data from patent US6096874A (Board of Regents, the University of Texas System, priority 1995, dated 2000).

Key:
in vivo = experiment: in vivo; set-up: species or system rat; conditions: for tissue uptake at 1 h / tissue uptake at 3 h / tissue uptake at 6 h / tissue uptake at 24 h / Tissue uptake findings (in words): rat; for tissue uptake at 1 h / tissue uptake at 3 h / tissue uptake at 6 h / tissue uptake at 24 h: iv; for Tissue uptake findings (in words): in vivo
Protocol: In animal tissue distribution studies, each rate was given 8.9 μCi (0.15 ml) tracer intravenously. The tumor-bearing rats were killed at 1, 3, 6 and 24 h. […] The amount of DES given should occupy tumor estrogen receptor sites. The methods for inducing tumors in rats was as described by those of skill in the art (radiology). […]
Female Fisher 344 rats (250-275 g) (Harlan, Inc., Indianapolis, Ind.) were inoculated with mammary tumor cells using the 13762 tumor cell line (s.c. 10^5 cells/rat). After 14 days, a tumor size of 1-2 cm was observed. For ^131 I-ITX studies, five groups of rats (N=3/group) were anesthetized with ketamine (10-15 mg/rat). The trans ^131 I-ITX was given to four of the five groups (8.9 μCi/rat, i.v.) and biodistribution was studied at 1, 3, 6 and 24 h intervals. In blocking studies, the fifth group of rats was given diethylstilbestrol (DES) (1.2 mg/rat) for 1 h, followed by 8.9 μCi of ^131 I-ITX; biodistribution was studied 6 h later. The tissues were collected at different time intervals. The tissues were weighted and counted for radioactivity. The percent of injected dose per gram of tissue weight was calculated. […]

[1] = Biodistribution in mammary tumor-bearing rats primed with estradiol; assay type: in vivo, rat; conditions: for tissue uptake at 1 h / tissue uptake at 3 h / tissue uptake at 6 h / tissue uptake at 24 h: rat, iv
Protocol: Female Fisher 344 rats (250-275 g) (Harlan, Inc., Indianapolis, Ind.) were inoculated with mammary tumor cells using the 13762 tumor cell line (s.c. 10^5 cells/rat). After 14 days, a tumor size of 1-2 cm was observed. For ^131 I-ITX studies, five groups of rats (N=3/group) were anesthetized with ketamine (10-15 mg/rat). […] In blocking studies, the fifth group of rats was given diethylstilbestrol (DES) (1.2 mg/rat) for 1 h, followed by 8.9 μCi of ^131 I-ITX; biodistribution was studied 6 h later. The tissues were collected at different time intervals. The tissues were weighted and counted for radioactivity. The percent of injected dose per gram of tissue weight was calculated.
[…]. The biodistribution studies were conducted at 1, 3, 6 and 24 h.

rabbit uterus = experiment: Gamma scintigraphic imaging of estrogen receptor sites in rabbits; assay type: in vivo; conditions: for Rabbit uterus uptake after DES block (in words): DES 15 mg iv pretreatment
Protocol: Gamma scintigraphic images were obtained from GE Starport System (GE Company, Milwaukee, Wis.). […] Each pixel was 14 bits deep. Six New Zealand female rabbits (3-4 Kg B.W.) were administered 300 μCi of [^131 I]iodotamoxifen (iv) and multiple images at 2, 24 and 48 hours were accomplished. To ascertain the radioactivity uptake in uterus is via an ER-mediated process, the rabbits were administered with diethylstilbestrol (15 mg,iv) 1 hour prior to receiving [^131 I]ITX and the images were obtained at 2, 24 and 48 hours.

[2] = 6 h, pretreated with DES (blocking)
[3] = 24 h, listed as 131 I-ITX, 1440 min
[4] = tumor, 1 h, read-out: Tumor uptake
[5] = tumor, 3 h, read-out: Tumor uptake
[6] = tumor, 6 h, read-out: Tumor uptake
[7] = tumor, 24 h, read-out: Tumor uptake

CCN(CC)CCOc1ccc(/C(=C(/CCC[131I])c2ccccc2)c2ccccc2)cc1 [^131 I-IODOTAMOXIFEN]
Tumor uptake (in vivo; 1 h, 60 min): 0.181 % injected dose/gram tissue
Tumor uptake (in vivo; 3 h, 180 min): 0.229 % injected dose/gram tissue
Blood uptake (in vivo; [2]): 0.072 % injected dose/gram tissue
Kidney uptake (in vivo; [2]): 1.296 % injected dose/gram tissue
Liver uptake (in vivo; [2]): 4.682 % injected dose/gram tissue
Lung uptake (in vivo; [2]): 2.173 % injected dose/gram tissue
Muscle uptake (in vivo; [2]): 0.172 % injected dose/gram tissue
Spleen uptake (in vivo; [2]): 2.366 % injected dose/gram tissue
Thyroid uptake (in vivo; [2]): 0.640 % injected dose/gram tissue
Uterus uptake (in vivo; [2]): 0.325 % injected dose/gram tissue
Tumor uptake (in vivo; 6 h, pretreated with DES (blocking), 360 min): 0.217 % injected dose/gram tissue
Tumor uptake (in vivo; 6 h, pretreated with DES (blocking), listed as 131 I-TX, 360 min): 0.22±0.059 % injected dose/gram tissue
Tumor uptake (in vivo; 6 h, pretreated with DES (blocking), listed as [^131 I]ITX, 360 min): 0.22±0.044 % injected dose/gram tissue
Tumor uptake (in vivo; 6 h, 360 min): 0.261 % injected dose/gram tissue
Tumor uptake (in vivo; 24 h, 1440 min): 0.267 % injected dose/gram tissue
Tumor uptake (in vivo; [3]): 0.267±0.0160 % injected dose/gram tissue
tissue uptake at 1 h (in vivo; blood, 1 h, read-out: Blood uptake): 0.158 %ID/g
tissue uptake at 3 h (in vivo; blood, 3 h, read-out: Blood uptake): 0.121 %ID/g
tissue uptake at 6 h (in vivo; blood, 6 h, read-out: Blood uptake): 0.124 %ID/g
tissue uptake at 24 h (in vivo; blood, 24 h, read-out: Blood uptake): 0.001 %ID/g
Tissue uptake findings (in words) (in vivo): both tumor and uterus uptake can be blocked
Tissue uptake findings (in words) (in vivo; listed as 131 I-ITX): both tumor and uterus value were decreased in 6 h blocking group
tissue uptake at 1 h (in vivo; kidney, 1 h, read-out: Kidney uptake): 1.88 %ID/g
tissue uptake at 3 h (in vivo; kidney, 3 h, read-out: Kidney uptake): 2.37 %ID/g
tissue uptake at 6 h (in vivo; kidney, 6 h, read-out: Kidney uptake): 1.36 %ID/g
tissue uptake at 24 h (in vivo; kidney, 24 h, read-out: Kidney uptake): 0.381 %ID/g
tissue uptake at 1 h (in vivo; liver, 1 h, read-out: Liver uptake): 5.6 %ID/g
tissue uptake at 3 h (in vivo; liver, 3 h, read-out: Liver uptake): 6 %ID/g
tissue uptake at 6 h (in vivo; liver, 6 h, read-out: Liver uptake): 4.63 %ID/g
tissue uptake at 24 h (in vivo; liver, 24 h, read-out: Liver uptake): 2.47 %ID/g
tissue uptake at 1 h (in vivo; lung, 1 h, read-out: Lung uptake): 3.95 %ID/g
tissue uptake at 3 h (in vivo; lung, 3 h, read-out: Lung uptake): 3.71 %ID/g
tissue uptake at 6 h (in vivo; lung, 6 h, read-out: Lung uptake): 2.84 %ID/g
tissue uptake at 24 h (in vivo; lung, 24 h, read-out: Lung uptake): 0.512 %ID/g
tissue uptake at 1 h (in vivo; muscle, 1 h, read-out: Muscle uptake): 0.201 %ID/g
tissue uptake at 3 h (in vivo; muscle, 3 h, read-out: Muscle uptake): 0.253 %ID/g
tissue uptake at 6 h (in vivo; muscle, 6 h, read-out: Muscle uptake): 0.204 %ID/g
tissue uptake at 24 h (in vivo; muscle, 24 h, read-out: Muscle uptake): 0.005 %ID/g
tissue uptake at 1 h (in vivo; spleen, 1 h, read-out: Spleen uptake): 3.38 %ID/g
tissue uptake at 3 h (in vivo; spleen, 3 h, read-out: Spleen uptake): 3.31 %ID/g
tissue uptake at 6 h (in vivo; spleen, 6 h, read-out: Spleen uptake): 2.33 %ID/g
tissue uptake at 24 h (in vivo; spleen, 24 h, read-out: Spleen uptake): 0.688 %ID/g
tissue uptake at 1 h (in vivo; thyroid, 1 h, read-out: Thyroid uptake): 0.393 %ID/g
tissue uptake at 3 h (in vivo; thyroid, 3 h, read-out: Thyroid uptake): 0.748 %ID/g
tissue uptake at 6 h (in vivo; thyroid, 6 h, read-out: Thyroid uptake): 0.776 %ID/g
tissue uptake at 24 h (in vivo; thyroid, 24 h, read-out: Thyroid uptake): 0.493 %ID/g
tissue uptake at 1 h (in vivo; [4]): 0.18 ± 0.062 %ID/g
tissue uptake at 3 h (in vivo; [5]): 0.23 ± 0.152 %ID/g
tissue uptake at 6 h (in vivo; [6]): 0.26 ± 0.166 %ID/g
tissue uptake at 24 h (in vivo; [7]): 0.27 ± 0.016 %ID/g
tissue uptake at 1 h (in vivo; uterus, 1 h, read-out: Uterus uptake): 0.414 %ID/g
tissue uptake at 3 h (in vivo; uterus, 3 h, read-out: Uterus uptake): 0.546 %ID/g
tissue uptake at 6 h (in vivo; uterus, 6 h, read-out: Uterus uptake): 0.408 %ID/g
tissue uptake at 24 h (in vivo; uterus, 24 h, read-out: Uterus uptake): 0.151 %ID/g
Tumor uptake ([1]; 1 h, listed as 131 I-Iodo Analogue of Tamoxifen, 60 min): 0.303 ± 0.0333 % injected dose/gram tissue
Tumor uptake ([1]; 3 h, listed as 131 I-Iodo Analogue of Tamoxifen, 180 min): 0.422 ± 0.0389 % injected dose/gram tissue
Tumor uptake ([1]; 6 h, listed as 131 I-Iodo Analogue of Tamoxifen, 360 min): 0.479 ± 0.1065 % injected dose/gram tissue
Tumor uptake [1, 3]: 0.397±0.1231 % injected dose/gram tissue
Tumor uptake ([1]; 24 h, listed as 131 I-Iodo Analogue of Tamoxifen, 1440 min): 0.397 % injected dose/gram tissue
tissue uptake at 1 h ([1]; blood, 10 uCi/rat, 1 h, read-out: Blood uptake): 0.155 ± 0.004 %ID/g
tissue uptake at 3 h ([1]; blood, 10 uCi/rat, 3 h, read-out: Blood uptake): 0.12 ± 0.0137 %ID/g
tissue uptake at 6 h ([1]; blood, 10 uCi/rat, 6 h, read-out: Blood uptake): 0.086 ± 0.0018 %ID/g
tissue uptake at 24 h ([1]; blood, 10 uCi/rat, 24 h, read-out: Blood uptake): 0.036 ± 0.0001 %ID/g
tissue uptake at 1 h ([1]; kidney, 10 uCi/rat, 1 h, read-out: Kidney uptake): 1.3 ± 0.0839 %ID/g
tissue uptake at 3 h ([1]; kidney, 10 uCi/rat, 3 h, read-out: Kidney uptake): 1.49 ± 0.107 %ID/g
tissue uptake at 6 h ([1]; kidney, 10 uCi/rat, 6 h, read-out: Kidney uptake): 1.39 ± 0.116 %ID/g
tissue uptake at 24 h ([1]; kidney, 10 uCi/rat, 24 h, read-out: Kidney uptake): 0.573 %ID/g
tissue uptake at 1 h ([1]; liver, 10 uCi/rat, 1 h, read-out: Liver uptake): 6.746 ± 0.0546 %ID/g
tissue uptake at 3 h ([1]; liver, 10 uCi/rat, 3 h, read-out: Liver uptake): 6.73 ± 0.122 %ID/g
tissue uptake at 6 h ([1]; liver, 10 uCi/rat, 6 h, read-out: Liver uptake): 4.67 ± 0.461 %ID/g
tissue uptake at 24 h ([1]; liver, 10 uCi/rat, 24 h, read-out: Liver uptake): 2.71 %ID/g
tissue uptake at 1 h ([1]; lung, 10 uCi/rat, 1 h, read-out: Lung uptake): 2.83 ± 0.14 %ID/g
tissue uptake at 3 h ([1]; lung, 10 uCi/rat, 3 h, read-out: Lung uptake): 3.04 ± 0.411 %ID/g
tissue uptake at 6 h ([1]; lung, 10 uCi/rat, 6 h, read-out: Lung uptake): 3.06 ± 0.458 %ID/g
tissue uptake at 24 h ([1]; lung, 10 uCi/rat, 24 h, read-out: Lung uptake): 1.12 %ID/g
tissue uptake at 1 h ([1]; muscle, 10 uCi/rat, 1 h, read-out: Muscle uptake): 0.214 ± 0.0176 %ID/g
tissue uptake at 3 h ([1]; muscle, 10 uCi/rat, 3 h, read-out: Muscle uptake): 0.242 ± 0.187 %ID/g
tissue uptake at 6 h ([1]; muscle, 10 uCi/rat, 6 h, read-out: Muscle uptake): 0.253 ± 0.0208 %ID/g
tissue uptake at 24 h ([1]; muscle, 10 uCi/rat, 24 h, read-out: Muscle uptake): 0.114 %ID/g
tissue uptake at 1 h [1, 4]: 0.3 ± 0.033 %ID/g
tissue uptake at 3 h [1, 5]: 0.42 %ID/g
tissue uptake at 6 h [1, 6]: 0.48 ± 0.107 %ID/g
tissue uptake at 24 h [1, 7]: 0.4 ± 0.123 %ID/g
tissue uptake at 1 h ([1]; uterus, 10 uCi/rat, 1 h, read-out: Uterus uptake): 0.334 ± 0.0485 %ID/g
tissue uptake at 3 h ([1]; uterus, 10 uCi/rat, 3 h, read-out: Uterus uptake): 0.4 ± 0.132 %ID/g
tissue uptake at 6 h ([1]; uterus, 10 uCi/rat, 6 h, read-out: Uterus uptake): 0.559 ± 0.0982 %ID/g
tissue uptake at 24 h ([1]; uterus, 10 uCi/rat, 24 h, read-out: Uterus uptake): 0.335 %ID/g
uterus:muscle uptake ratio (rabbit uterus; 24 h postinjection): 4.6
Rabbit uterus uptake after DES block (in words) (rabbit uterus; listed as 131 l-iodotamoxifen): the uterus showed decreased uptake
Rabbit uterus uptake after DES block (in words) (rabbit uterus; listed as [^131 I]ITX): rabbit uterus uptake can be blocked by pretreatment with DES
Rabbit uterus uptake after DES block (in words) (rabbit uterus; listed as [^131 ]ITX): increased uptake can be blocked by pretreatment of the rabbit with DES
